Assay results from ChEMBL document CHEMBL6182889, “Discovery of the first-in-class DOT1L PROTAC degrader” (Eur J Med Chem, 2025).
Calls of active or inactive are those of the source. The rule behind the calls is not given here.

How the values were obtained:
[1] = molecular target: T1, Histone-arginine methyltransferase CARM1 (Homo sapiens) (UniProt Q86X55); assay: Inhibition of human PRMT4 using histone H3 and SAM as substrate at 10 uM by radiometric Hotspot assay
T1 sequence (whole entry): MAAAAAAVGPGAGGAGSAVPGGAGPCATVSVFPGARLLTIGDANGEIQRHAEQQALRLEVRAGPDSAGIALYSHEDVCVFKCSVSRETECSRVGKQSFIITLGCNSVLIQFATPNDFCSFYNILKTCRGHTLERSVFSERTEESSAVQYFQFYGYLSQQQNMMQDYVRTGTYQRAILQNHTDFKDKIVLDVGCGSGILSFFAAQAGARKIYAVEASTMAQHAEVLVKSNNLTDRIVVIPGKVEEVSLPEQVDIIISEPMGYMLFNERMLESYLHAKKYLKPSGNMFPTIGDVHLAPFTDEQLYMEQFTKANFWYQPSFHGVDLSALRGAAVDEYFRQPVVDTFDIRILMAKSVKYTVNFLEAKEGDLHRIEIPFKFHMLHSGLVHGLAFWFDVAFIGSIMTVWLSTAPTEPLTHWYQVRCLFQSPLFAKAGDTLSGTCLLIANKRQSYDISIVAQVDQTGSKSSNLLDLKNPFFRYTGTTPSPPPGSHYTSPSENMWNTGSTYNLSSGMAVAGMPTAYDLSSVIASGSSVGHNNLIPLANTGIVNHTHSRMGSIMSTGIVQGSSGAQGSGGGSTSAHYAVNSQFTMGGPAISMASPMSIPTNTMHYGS

[2] = molecular target: T2, von Hippel-Lindau disease tumor suppressor/Histone-lysine N-methyltransferase, H3 lysine-79 specific (Homo sapiens, UniProt Q8TEK3+P40337); assay: PROTAC activity at VHL/DOT1L in mixed-lineage leukemia rearranged (MLL-r) human MOLM-13 cells assessed as induction of DOT1L degradation at 0.3 to 3 uM by western blot analysis; type: cell-based; settings: dose 0.3-3 µM
[3] = molecular target: T2, von Hippel-Lindau disease tumor suppressor/Histone-lysine N-methyltransferase, H3 lysine-79 specific; assay: PROTAC activity at VHL/DOTIL in mixed-lineage leukemia rearranged (MLL-r) human THP-1 cells assessed as induction of DOT1L degradation by measuring reduction in DOTIL protein level at 0.3 uM incubated for 24 hrs by western blot analysis relative to control; type: cell-based; parameters: scale not given: the % may be the effect or the level left
[4] = molecular target: T2, von Hippel-Lindau disease tumor suppressor/Histone-lysine N-methyltransferase, H3 lysine-79 specific; assay: PROTAC activity at VHL/DOT1L in mixed-lineage leukemia rearranged (MLL-r) human THP-1 cells assessed as induction of DOTIL degradation by measuring fold change in H3K79Me2 level at 3 uM incubated for 24 hrs by western blot analysis relative to control; type: cell-based
[5] = molecular target: T2, von Hippel-Lindau disease tumor suppressor/Histone-lysine N-methyltransferase, H3 lysine-79 specific; assay: PROTAC activity at VHL/DOT1L in mixed-lineage leukemia rearranged (MLL-r) human MV4-11 cells assessed as induction of DOTIL degradation by measuring fold change in DOT1L protein level at 3 uM incubated for 4 hrs by western blot analysis relative to control; type: cell-based
[6] = molecular target: T3, Histone-lysine N-methyltransferase NSD2 (Homo sapiens) (UniProt O96028); assay: Inhibition of human NSD2 using nucleosomes and SAM as substrate at 10 uM by radiometric Hotspot assay
T3 sequence (whole entry): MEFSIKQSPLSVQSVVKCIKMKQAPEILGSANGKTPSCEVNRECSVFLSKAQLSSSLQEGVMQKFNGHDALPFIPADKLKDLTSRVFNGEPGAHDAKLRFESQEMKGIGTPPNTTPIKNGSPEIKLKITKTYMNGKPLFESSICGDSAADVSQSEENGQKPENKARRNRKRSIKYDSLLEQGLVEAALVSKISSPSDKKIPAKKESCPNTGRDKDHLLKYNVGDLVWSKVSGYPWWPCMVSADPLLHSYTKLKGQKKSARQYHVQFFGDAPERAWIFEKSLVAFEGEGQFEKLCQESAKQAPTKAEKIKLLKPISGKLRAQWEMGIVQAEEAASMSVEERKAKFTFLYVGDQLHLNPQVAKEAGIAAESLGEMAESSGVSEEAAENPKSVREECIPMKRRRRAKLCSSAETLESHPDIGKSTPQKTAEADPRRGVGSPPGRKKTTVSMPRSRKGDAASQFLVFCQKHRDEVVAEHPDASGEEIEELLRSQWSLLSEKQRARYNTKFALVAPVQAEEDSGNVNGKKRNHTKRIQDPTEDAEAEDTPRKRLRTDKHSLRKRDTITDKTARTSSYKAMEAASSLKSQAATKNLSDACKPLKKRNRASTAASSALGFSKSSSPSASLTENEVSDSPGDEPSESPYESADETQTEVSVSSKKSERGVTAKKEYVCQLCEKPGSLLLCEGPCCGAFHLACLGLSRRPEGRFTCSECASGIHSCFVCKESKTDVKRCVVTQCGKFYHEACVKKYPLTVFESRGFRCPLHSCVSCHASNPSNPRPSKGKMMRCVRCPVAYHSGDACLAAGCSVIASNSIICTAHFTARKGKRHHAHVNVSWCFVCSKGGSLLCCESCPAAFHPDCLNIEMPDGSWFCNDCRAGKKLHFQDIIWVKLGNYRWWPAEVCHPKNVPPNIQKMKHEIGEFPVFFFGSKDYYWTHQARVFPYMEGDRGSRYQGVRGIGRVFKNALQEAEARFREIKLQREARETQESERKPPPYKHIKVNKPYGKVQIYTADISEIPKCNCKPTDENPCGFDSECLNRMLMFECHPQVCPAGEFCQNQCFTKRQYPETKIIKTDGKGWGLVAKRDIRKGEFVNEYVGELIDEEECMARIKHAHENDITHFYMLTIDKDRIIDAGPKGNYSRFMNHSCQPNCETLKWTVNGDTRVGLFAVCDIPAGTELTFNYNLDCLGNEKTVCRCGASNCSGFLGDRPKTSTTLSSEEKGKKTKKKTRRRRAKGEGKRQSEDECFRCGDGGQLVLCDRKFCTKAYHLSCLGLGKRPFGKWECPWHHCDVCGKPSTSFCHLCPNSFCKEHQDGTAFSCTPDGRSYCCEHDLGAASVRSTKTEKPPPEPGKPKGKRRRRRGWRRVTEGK

[7] = molecular target: DNA (cytosine-5)-methyltransferase 1 (Homo sapiens) (UniProt P26358); assay: Inhibition of human DNMT1 using poly(dI-dC) and SAM as substrate at 10 uM by radiometric Hotspot assay
[8] = molecular target: Histone-lysine N-methyltransferase, H3 lysine-79 specific (Homo sapiens) (UniProt Q8TEK3); assay: Inhibition of human DOT1L using oligonucleosomes and SAM as substrate at 4.6 nM by radiometric Hotspot assay
[9] = molecular target: Histone-lysine N-methyltransferase EZH2 (Homo sapiens) (UniProt Q15910); assay: Inhibition of human EZH2 using core histone and SAM as substrate at 10 uM by radiometric Hotspot assay
MV4-11 = assay: Antiproliferative activity against mixed-lineage leukemia rearranged (MLL-r) human MV4-11 cells assessed as inhibition of cell growth incubated for 7 days by CCK-8 assay; type: functional; settings: MV4-11, 168 h, time 7 day
[10] = molecular target: T2, von Hippel-Lindau disease tumor suppressor/Histone-lysine N-methyltransferase, H3 lysine-79 specific; assay: PROTAC activity at VHL/DOT1L in mixed-lineage leukemia rearranged (MLL-r) human MV4-11 cells assessed as induction of DOTIL degradation by measuring fold change in H3K79Me2 level at 3 uM incubated for 4 hrs by western blot analysis relative to control; type: cell-based

T2 sequence (P40337 whole entry, looked up): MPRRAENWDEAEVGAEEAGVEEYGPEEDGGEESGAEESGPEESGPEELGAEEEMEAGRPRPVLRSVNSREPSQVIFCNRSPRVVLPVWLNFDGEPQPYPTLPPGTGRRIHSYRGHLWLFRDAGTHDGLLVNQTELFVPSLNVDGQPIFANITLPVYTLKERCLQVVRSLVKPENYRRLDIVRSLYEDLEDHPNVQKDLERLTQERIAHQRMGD
T2 sequence (Q8TEK3 whole entry, looked up): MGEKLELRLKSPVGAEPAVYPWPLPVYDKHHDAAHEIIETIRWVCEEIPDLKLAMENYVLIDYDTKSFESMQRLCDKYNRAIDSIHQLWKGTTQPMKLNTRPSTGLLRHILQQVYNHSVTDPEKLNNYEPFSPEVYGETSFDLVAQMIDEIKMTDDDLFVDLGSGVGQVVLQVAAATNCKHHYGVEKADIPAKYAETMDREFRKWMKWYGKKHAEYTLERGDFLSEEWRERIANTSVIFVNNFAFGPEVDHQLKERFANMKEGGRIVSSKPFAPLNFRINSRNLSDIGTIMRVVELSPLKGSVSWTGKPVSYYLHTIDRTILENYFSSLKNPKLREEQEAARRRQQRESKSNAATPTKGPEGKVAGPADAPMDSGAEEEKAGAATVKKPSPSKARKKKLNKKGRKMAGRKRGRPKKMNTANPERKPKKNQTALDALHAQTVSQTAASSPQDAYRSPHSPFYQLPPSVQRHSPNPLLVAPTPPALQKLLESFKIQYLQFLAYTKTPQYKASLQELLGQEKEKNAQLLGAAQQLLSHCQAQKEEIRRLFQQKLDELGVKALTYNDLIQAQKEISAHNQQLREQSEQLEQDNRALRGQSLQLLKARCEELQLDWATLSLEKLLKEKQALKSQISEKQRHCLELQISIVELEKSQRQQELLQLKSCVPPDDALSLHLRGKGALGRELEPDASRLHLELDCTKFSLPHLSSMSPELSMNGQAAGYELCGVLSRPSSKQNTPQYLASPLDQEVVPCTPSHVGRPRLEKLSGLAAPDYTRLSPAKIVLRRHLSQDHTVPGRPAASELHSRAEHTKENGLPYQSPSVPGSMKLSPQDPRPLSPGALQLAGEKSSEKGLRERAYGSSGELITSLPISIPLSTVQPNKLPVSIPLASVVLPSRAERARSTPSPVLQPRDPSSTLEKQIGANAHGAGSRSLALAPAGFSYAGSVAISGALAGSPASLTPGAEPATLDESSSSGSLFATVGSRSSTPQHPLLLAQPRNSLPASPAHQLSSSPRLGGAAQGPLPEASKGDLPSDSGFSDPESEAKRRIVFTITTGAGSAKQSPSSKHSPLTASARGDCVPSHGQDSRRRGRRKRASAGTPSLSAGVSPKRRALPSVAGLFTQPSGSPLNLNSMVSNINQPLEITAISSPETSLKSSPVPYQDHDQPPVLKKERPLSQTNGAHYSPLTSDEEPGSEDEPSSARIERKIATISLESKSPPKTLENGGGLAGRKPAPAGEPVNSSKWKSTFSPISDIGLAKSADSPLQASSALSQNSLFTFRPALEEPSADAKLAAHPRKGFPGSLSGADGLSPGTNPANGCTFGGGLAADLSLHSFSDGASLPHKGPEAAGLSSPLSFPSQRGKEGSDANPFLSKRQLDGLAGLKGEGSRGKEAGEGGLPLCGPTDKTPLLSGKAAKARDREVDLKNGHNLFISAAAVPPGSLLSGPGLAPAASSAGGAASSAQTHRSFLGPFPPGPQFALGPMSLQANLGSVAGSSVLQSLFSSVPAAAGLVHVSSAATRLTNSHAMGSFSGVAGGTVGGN
Chain of Histone-lysine N-methyltransferase EZH2 (Homo sapiens) (Q15910 whole entry, looked up): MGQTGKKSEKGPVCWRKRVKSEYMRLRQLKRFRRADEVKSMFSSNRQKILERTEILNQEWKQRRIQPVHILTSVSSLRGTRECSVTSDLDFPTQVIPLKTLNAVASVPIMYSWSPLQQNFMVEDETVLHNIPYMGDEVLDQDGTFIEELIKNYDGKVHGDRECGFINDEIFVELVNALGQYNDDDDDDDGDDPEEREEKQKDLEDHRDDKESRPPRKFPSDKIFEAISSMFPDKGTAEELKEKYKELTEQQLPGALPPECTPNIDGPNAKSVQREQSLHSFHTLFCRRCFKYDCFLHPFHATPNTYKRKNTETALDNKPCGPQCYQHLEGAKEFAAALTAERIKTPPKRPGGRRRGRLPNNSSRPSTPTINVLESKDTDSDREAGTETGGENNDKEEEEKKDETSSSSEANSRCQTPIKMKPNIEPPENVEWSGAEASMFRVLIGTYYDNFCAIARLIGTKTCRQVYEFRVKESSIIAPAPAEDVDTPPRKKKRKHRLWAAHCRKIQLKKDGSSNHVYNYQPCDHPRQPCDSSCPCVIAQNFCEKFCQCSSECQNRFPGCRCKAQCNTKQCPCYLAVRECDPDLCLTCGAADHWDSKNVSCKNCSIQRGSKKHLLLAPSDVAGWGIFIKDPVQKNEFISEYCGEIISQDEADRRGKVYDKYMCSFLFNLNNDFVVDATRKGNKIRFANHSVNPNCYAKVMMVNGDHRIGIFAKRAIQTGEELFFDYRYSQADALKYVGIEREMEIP
Chain of Histone-lysine N-methyltransferase, H3 lysine-79 specific (Homo sapiens) (Q8TEK3 whole entry, looked up): as the sequence (Q8TEK3 whole entry, looked up) above
Chain of DNA (cytosine-5)-methyltransferase 1 (Homo sapiens) (P26358 whole entry): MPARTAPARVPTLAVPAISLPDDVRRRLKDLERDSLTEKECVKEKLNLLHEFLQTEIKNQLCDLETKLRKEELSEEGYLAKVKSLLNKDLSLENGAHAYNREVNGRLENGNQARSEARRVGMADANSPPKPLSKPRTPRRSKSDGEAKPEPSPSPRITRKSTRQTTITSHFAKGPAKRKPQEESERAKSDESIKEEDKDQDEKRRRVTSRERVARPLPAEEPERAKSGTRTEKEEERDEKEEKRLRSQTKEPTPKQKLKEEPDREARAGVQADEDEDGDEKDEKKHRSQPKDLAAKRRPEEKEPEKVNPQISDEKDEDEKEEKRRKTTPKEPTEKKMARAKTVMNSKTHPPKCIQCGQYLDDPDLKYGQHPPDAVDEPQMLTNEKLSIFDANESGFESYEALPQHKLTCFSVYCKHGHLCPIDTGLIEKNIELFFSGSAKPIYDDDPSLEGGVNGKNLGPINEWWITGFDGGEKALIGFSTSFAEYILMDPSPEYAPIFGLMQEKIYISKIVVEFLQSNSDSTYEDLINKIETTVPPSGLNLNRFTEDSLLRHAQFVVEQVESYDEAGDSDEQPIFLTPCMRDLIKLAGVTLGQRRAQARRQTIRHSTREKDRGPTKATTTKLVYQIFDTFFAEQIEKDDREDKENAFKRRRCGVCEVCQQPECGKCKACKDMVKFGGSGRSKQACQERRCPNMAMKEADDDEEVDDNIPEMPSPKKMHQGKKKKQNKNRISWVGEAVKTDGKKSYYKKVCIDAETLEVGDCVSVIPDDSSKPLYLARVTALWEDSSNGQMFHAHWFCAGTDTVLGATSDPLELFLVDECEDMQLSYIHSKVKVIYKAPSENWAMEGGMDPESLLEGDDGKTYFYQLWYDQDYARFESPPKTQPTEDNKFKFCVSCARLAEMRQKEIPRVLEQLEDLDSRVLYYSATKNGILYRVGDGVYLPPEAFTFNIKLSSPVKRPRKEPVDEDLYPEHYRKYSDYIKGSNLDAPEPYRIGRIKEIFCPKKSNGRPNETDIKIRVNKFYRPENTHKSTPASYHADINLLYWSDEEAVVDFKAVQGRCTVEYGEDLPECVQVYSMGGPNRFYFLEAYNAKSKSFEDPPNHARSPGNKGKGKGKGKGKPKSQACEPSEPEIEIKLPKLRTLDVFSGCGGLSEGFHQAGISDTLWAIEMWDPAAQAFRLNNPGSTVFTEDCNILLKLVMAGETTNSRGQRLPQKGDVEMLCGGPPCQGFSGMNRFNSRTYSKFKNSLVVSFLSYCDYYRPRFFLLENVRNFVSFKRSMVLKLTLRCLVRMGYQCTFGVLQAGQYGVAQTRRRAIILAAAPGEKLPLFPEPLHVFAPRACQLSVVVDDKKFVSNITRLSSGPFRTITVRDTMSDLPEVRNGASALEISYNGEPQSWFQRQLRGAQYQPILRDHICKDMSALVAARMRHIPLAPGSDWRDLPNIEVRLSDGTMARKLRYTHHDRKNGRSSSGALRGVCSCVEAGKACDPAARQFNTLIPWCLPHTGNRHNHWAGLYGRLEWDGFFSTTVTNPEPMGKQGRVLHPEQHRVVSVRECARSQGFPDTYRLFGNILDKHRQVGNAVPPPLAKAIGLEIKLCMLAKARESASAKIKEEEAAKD

- inhibition [1]: inactive
- Activity [2]: Active
- Activity [3]: 70%
- fold change (FC) [4]: 0.29
- fold change (FC) [5]: 0.27
- inhibition [6]: inactive
- inhibition [7]: inactive
- inhibition [8]: > 95%
- inhibition [9]: inactive
- GI50 (MV4-11): 212 nM
- fold change (FC) [10]: 0.32
SMILES: Cc1ncsc1-c1ccc([C@H](CC(=O)NCCCCCCNC(=O)COc2nc(N)nc(Nc3cc(S(N)(=O)=O)ccc3N[C@@H](c3cccc4c3OC(F)(F)O4)c3ncccc3Cl)n2)NC(=O)[C@@H]2C[C@@H](O)CN2C(=O)[C@@H](NC(=O)C2(F)CC2)C(C)(C)C)cc1
